The results in this text go back to US10851067B2, “Kv7 channel activators compositions and methods of use” (Knopp Biosciences LLC, priority 2018, dated 2020).

The test concerns the target Kv7.2/7.3 (Homo sapiens, UniProt O43525+O43526). The experiment in a line: Kv7.2/7.3 Activation Assay, QPatch single concentration screen. The test is classed as cell-based. Also on record: host or cells: HEK cells, tetracycline-inducible expression; key: 1.2-2.9 (+); 3-3.9 (++); >4 (+++) fold increase over baseline; O represents open channel at holding potential. The conditions noted are these: Kv7.2/Kv7.3 co-expressing HEK cells, compound concentration 3 μM, steady-state current at end of 2 s pulse to −30 mV. Put shortly:
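Tetracycline-induced HEK cells expressing human Kv7.2/7.3, recorded 24 h post-induction by automated planar patch clamp. From −80 mV, 2 s steps to −30 mV then 100 ms to −120 mV; compound tested at 3 μM (0.1% DMSO). Steady-state current at end of −30 mV step gives fold increase over baseline.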
Background: In patch-clamp work, channel activity is measured electrically.

For the compound `CC(C)(CC(=O)Nc1nc2cc(F)c(OC(F)F)cc2n1C1CCC1)C1CC1` [Example 363, N-(1-cyclobutyl-6-(difluoromethoxy)-5-fluoro-1H-benzo[d]imidazol-2-yl)-3-cyclopropyl-3-methylbutanamide], the “Kv7.2/7.3 Activity: increase over baseline in current” value (“Kv7.2/7.3 Activity: increase” below) is listed as “+ (1.2-2.9 (+))”.

In the case of `CC(C)(C)CC(=O)Nc1nc2ccc(C(C)(C)O)cc2n1C1CC(F)(F)C1` [Example 332, N-(1-(3,3-difluorocyclobutyl)-6-(2-hydroxypropan-2-yl)-1H-benzo[d]imidazol-2-yl)-3,3-dimethylbutanamide], the “Kv7.2/7.3 Activity: increase” value is given as “+ (1.2-2.9 (+))”. The result for `CC1(n2c(NC(=O)CC(C)(C)C(F)(F)F)nc3c(F)cc(OC(F)F)cc32)CCC1` [Example 461, N-(6-(difluoromethoxy)-4-fluoro-1-(1-methylcyclobutyl)-1H-benzo[d]imidazol-2-yl)-4,4,4-trifluoro-3,3-dimethylbutanamide] reads “+ (1.2-2.9 (+))”. The result for `CC(C)(C)CC(=O)Nc1nc2cccc(C#N)c2n1C1(C)CCC1` [Example 473, N-(7-cyano-1-(1-methylcyclobutyl)-1H-benzo[d]imidazol-2-yl)-3,3-dimethylbutanamide] reads “++ (3-3.9 (++))”.

`CC(C)(C)CC(=O)Nc1nc2ccc(C(C)(C)O)cc2n1CC(F)(F)F` [Example 440, N-(6-(2-hydroxypropan-2-yl)-1-(2,2,2-trifluoroethyl)-1H-benzo[d]imidazol-2-yl)-3,3-dimethylbutanamide]: the “Kv7.2/7.3 Activity: increase” value is given as “+ (1.2-2.9 (+))”. The value for `CC1(n2c(NC(=O)CC(O)(CF)CF)nc3ccc(OC(F)F)c(F)c32)CCC1` [Example 423, N-(6-(difluoromethoxy)-7-fluoro-1-(1-methylcyclobutyl)-1H-benzo[d]imidazol-2-yl)-4-fluoro-3-(fluoromethyl)-3-hydroxybutanamide] was “+ (1.2-2.9 (+))”; that for `CC(C)(CC(=O)Nc1nc2ccc(C#N)cc2n1C(C)(C)C(F)(F)F)C(F)(F)F` [Example 484, N-(6-cyano-1-(1,1,1-trifluoro-2-methylpropan-2-yl)-1H-benzo[d]imidazol-2-yl)-4,4,4-trifluoro-3,3-dimethylbutanamide] was “+ (1.2-2.9 (+))”. In the case of `CC(O)(CC(=O)Nc1nc2ccc(C#N)cc2n1CC1CC1)c1ccccc1` (single isomer, unassigned) [Example 428, N-(6-cyano-1-(cyclopropylmethyl)-1H-benzo[d]imidazol-2-yl)-3-hydroxy-3-phenylbutanamide], the “Kv7.2/7.3 Activity: increase” value is reported as “++ (3-3.9 (++))”.

Turning to `CC(O)(CC(=O)Nc1nc2ccc(C#N)cc2n1CC(F)(F)F)c1ccccc1F` (single isomer, unassigned) [Example 483, N-(6-cyano-1-(2,2,2-trifluoroethyl)-1H-benzo[d]imidazol-2-yl)-3-(2-fluorophenyl)-3-hydroxybutanamide], the “Kv7.2/7.3 Activity: increase” value was “++ (3-3.9 (++))”. The result for `CC(O)(CC(=O)Nc1nc2cc(F)c(C#N)cc2n1C1(C)CCC1)c1ccccc1F` (single isomer, unassigned) [Example 373, N-(6-cyano-5-fluoro-1-(1-methylcyclobutyl)-1H-benzo[d]imidazol-2-yl)-3-(2-fluorophenyl)-3-hydroxybutanamide] reads “++ (3-3.9 (++))”. Regarding `CC(C)(CC(=O)Nc1nc2ccc(C#N)c(F)c2n1C1CCC1)CC(F)(F)F` [Example 345, N-(6-cyano-1-cyclobutyl-7-fluoro-1H-benzo[d]imidazol-2-yl)-5,5,5-trifluoro-3,3-dimethylpentanamide], the “Kv7.2/7.3 Activity: increase” value is reported as “+ (1.2-2.9 (+))”. For the compound `CC(C)(C)CC(=O)Nc1nc2ccc(N3CC(F)(F)C3)c(F)c2n1C1CCC1` [Example 475, N-(1-cyclobutyl-6-(3,3-difluoroazetidin-1-yl)-7-fluoro-1H-benzo[d]imidazol-2-yl)-3,3-dimethylbutanamide], the “Kv7.2/7.3 Activity: increase” value is listed as “++ (3-3.9 (++))”. The result for `CC(C)(C)CC(=O)Nc1nc2cc(C(C)(C)O)c(C(F)(F)F)cc2n1C1CCC1` [Example 450, N-(1-cyclobutyl-5-(2-hydroxypropan-2-yl)-6-(trifluoromethyl)-1H-benzo[d]imidazol-2-yl)-3,3-dimethylbutanamide] reads “+ (1.2-2.9 (+))”.

`CC(C)(O)CC(=O)Nc1nc2cccc(OC(F)(F)F)c2n1C1CCC1` [Example 380, N-(1-cyclobutyl-7-(trifluoromethoxy)-1H-benzo[d]imidazol-2-yl)-3-hydroxy-3-methylbutanamide]: the “Kv7.2/7.3 Activity: increase” value is on record as “+ (1.2-2.9 (+))”. The value for `CC(C)(C)CC(=O)Nc1nc2cc(F)cc(C#N)c2n1C1(C)CCC1` [Example 436, N-(7-cyano-5-fluoro-1-(1-methylcyclobutyl)-1H-benzo[d]imidazol-2-yl)-3,3-dimethylbutanamide] was “++ (3-3.9 (++))”. The value for `CC1(n2c(NC(=O)CC(C)(C)C(F)(F)F)nc3c(OC(F)F)cc(C#N)cc32)CCC1` [Example 419, N-(6-cyano-4-(difluoromethoxy)-1-(1-methylcyclobutyl)-1H-benzo[d]imidazol-2-yl)-4,4,4-trifluoro-3,3-dimethylbutanamide] was “+ (1.2-2.9 (+))”; that for `CC(C)(CC(=O)Nc1nc2ccc(OC(F)F)cc2n1C(C)(C)C)C1CC1` [Example 427, N-(1-(tert-butyl)-6-(difluoromethoxy)-1H-benzo[d]imidazol-2-yl)-3-cyclopropyl-3-methylbutanamide] was “++ (3-3.9 (++))”; that for `CC(C)(C)CC(=O)Nc1nc2c(C(F)(F)F)cc(Br)cc2n1C1CCC1` [Example 477, N-(6-bromo-1-cyclobutyl-4-(trifluoromethyl)-1H-benzo[d]imidazol-2-yl)-3,3-dimethylbutanamide] was “+++ (>4 (+++) fold increase over baseline)”. The value for `COc1cccc2nc(NC(=O)CC(C)(O)c3ccccc3)n(C3CCC3)c12` (single isomer, unassigned) [Example 442, N-(1-cyclobutyl-7-methoxy-1H-benzo[d]imidazol-2-yl)-3-hydroxy-3-phenylbutanamide] was “+ (1.2-2.9 (+))”; that for `COCc1c(F)ccc2nc(NC(=O)CC(C)(C)C)n(C3CCC3)c12` [Example 394, N-(1-cyclobutyl-6-fluoro-7-(methoxymethyl)-1H-benzo[d]imidazol-2-yl)-3,3-dimethylbutanamide] was “O”; that for `CC(=O)c1c(F)ccc2nc(NC(=O)CC(C)(O)c3ccccc3)n(C3(C)CCC3)c12` (single isomer, unassigned) [Example 360, N-(7-acetyl-6-fluoro-1-(1-methylcyclobutyl)-1H-benzo[d]imidazol-2-yl)-3-hydroxy-3-phenylbutanamide] was “O”.

On to `CC(O)(CC(=O)Nc1nc2cc(F)c(C#N)cc2n1C1(C)CCC1)c1ccccc1F` (single isomer, unassigned) [Example 478, N-(6-cyano-5-fluoro-1-(1-methylcyclobutyl)-1H-benzo[d]imidazol-2-yl)-3-(2-fluorophenyl)-3-hydroxybutanamide], for which the “Kv7.2/7.3 Activity: increase” value is on record as “+ (1.2-2.9 (+))”.

With `CC(C)(CC(=O)Nc1nc2ccc(OC(F)F)cc2n1C1(C)CCC1)C1CC1` [Example 434, 3-cyclopropyl-N-(6-(difluoromethoxy)-1-(1-methylcyclobutyl)-1H-benzo[d]imidazol-2-yl)-3-methylbutanamide], the “Kv7.2/7.3 Activity: increase” value was “+++ (>4 (+++) fold increase over baseline)”. As for `CC(C)(C)CC(=O)Nc1nc2ccc(C3(F)COC3)cc2n1C1CCC1` [Example 432, N-(1-cyclobutyl-6-(3-fluorooxetan-3-yl)-1H-benzo[d]imidazol-2-yl)-3,3-dimethylbutanamide], the “Kv7.2/7.3 Activity: increase” value is recorded as “+++ (>4 (+++) fold increase over baseline)”. The value for `CC(C)(O)c1ccc2nc(NC(=O)CC3CC(F)(F)C3(F)F)n(C3CCC3)c2c1` (single isomer, unassigned) [Example 446, N-(1-cyclobutyl-6-(2-hydroxypropan-2-yl)-1H-benzo[d]imidazol-2-yl)-2-(2,2,3,3-tetrafluorocyclobutyl)acetamide] was “++ (3-3.9 (++))”. The result for `CC(C)(CC(=O)Nc1nc2c(F)cc(C#N)c(F)c2n1C1CCC1)C1CC1` [Example 464, N-(6-cyano-1-cyclobutyl-4,7-difluoro-1H-benzo[d]imidazol-2-yl)-3-cyclopropyl-3-methylbutanamide] reads “++ (3-3.9 (++))”; that for `CC(C)(C)CC(=O)Nc1nc2c(F)cc(C(C)(O)C3CC3)cc2n1C1CCC1` (centres unmarked) [Example 445, N-(1-cyclobutyl-6-(1-cyclopropyl-1-hydroxyethyl)-4-fluoro-1H-benzo[d]imidazol-2-yl)-3,3-dimethylbutanamide], “++ (3-3.9 (++))”. On to `CC(C)(CC(=O)Nc1nc2c(F)cc(OC(F)F)cc2n1C1CCC1)C1CC1` [Example 390, N-(1-cyclobutyl-6-(difluoromethoxy)-4-fluoro-1H-benzo[d]imidazol-2-yl)-3-cyclopropyl-3-methylbutanamide], for which the “Kv7.2/7.3 Activity: increase” value is reported as “+ (1.2-2.9 (+))”. The value for `COc1cc(F)c2nc(NC(=O)CC(C)(C)C(F)(F)F)n(C3(C)CCC3)c2c1` [Example 433, 4,4,4-trifluoro-N-(4-fluoro-6-methoxy-1-(1-methylcyclobutyl)-1H-benzo[d]imidazol-2-yl)-3,3-dimethylbutanamide] was “++ (3-3.9 (++))”.
